Measurements published in PubChem BioAssay (NCI).
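Tested at 5 concentrations; 48 h exposure; 96-well plates; endpoints linearly interpolated, else capped at highest concentration. At the TGI there is no net growth.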

What was measured:
Assay in all cases: NCI tumour cell line growth inhibition, 48 h
MDA-N = tested on: MDA-N
HCT-15 colon = tested on: HCT-15 colon
RXF 393 renal = tested on: RXF 393 renal
OVCAR-4 ovarian = tested on: OVCAR-4 ovarian
K-562 leukemia = tested on: K-562 leukemia
NCI-H460 lung = tested on: NCI-H460 lung
SF-295 CNS = tested on: SF-295 CNS
OVCAR-5 ovarian = tested on: OVCAR-5 ovarian
A549 NSCLC = tested on: A549 NSCLC
LOX IMVI melanoma = tested on: LOX IMVI melanoma
TK-10 renal = tested on: TK-10 renal
DU-145 prostate = tested on: DU-145 prostate
HCT-116 colon = tested on: HCT-116 colon
MCF7 breast = tested on: MCF7 breast
CCRF-CEM leukemia = tested on: CCRF-CEM leukemia
CAKI-1 renal = tested on: CAKI-1 renal
OVCAR-8 ovarian = tested on: OVCAR-8 ovarian
PC-3 prostate = tested on: PC-3 prostate
BT-549 breast = tested on: BT-549 breast
MDA-MB-231 breast = tested on: MDA-MB-231 breast
SK-MEL-28 melanoma = tested on: SK-MEL-28 melanoma
U251 CNS = tested on: U251 CNS
MOLT-4 leukemia = tested on: MOLT-4 leukemia
SNB-75 CNS = tested on: SNB-75 CNS
NCI/ADR-RES ovarian = tested on: NCI/ADR-RES ovarian
NCI-H226 lung = tested on: NCI-H226 lung
HS 578T breast = tested on: HS 578T breast
COLO 205 colon = tested on: COLO 205 colon
ACHN renal = tested on: ACHN renal
SN12C renal = tested on: SN12C renal
SK-MEL-2 melanoma = tested on: SK-MEL-2 melanoma
SK-OV-3 ovarian = tested on: SK-OV-3 ovarian
KM12 colon = tested on: KM12 colon
SR leukemia = tested on: SR leukemia
RPMI-8226 leukemia = tested on: RPMI-8226 leukemia
UO-31 renal = tested on: UO-31 renal
IGROV1 ovarian = tested on: IGROV1 ovarian
HOP-62 NSCLC = tested on: HOP-62 NSCLC
SW-620 colon = tested on: SW-620 colon
MALME-3M melanoma = tested on: MALME-3M melanoma
SNB-19 CNS = tested on: SNB-19 CNS
SF-268 CNS = tested on: SF-268 CNS
786-0 renal = tested on: 786-0 renal
UACC-62 melanoma = tested on: UACC-62 melanoma
SK-MEL-5 melanoma = tested on: SK-MEL-5 melanoma
M14 melanoma = tested on: M14 melanoma
A498 renal = tested on: A498 renal
UACC-257 melanoma = tested on: UACC-257 melanoma
NCI-H522 lung = tested on: NCI-H522 lung
OVCAR-3 ovarian = tested on: OVCAR-3 ovarian
HT29 colon = tested on: HT29 colon
MDA-MB-435 = tested on: MDA-MB-435
T-47D breast = tested on: T-47D breast
EKVX NSCLC = tested on: EKVX NSCLC
HOP-92 NSCLC = tested on: HOP-92 NSCLC
HL-60(TB) leukemia = tested on: HL-60(TB) leukemia
NCI-H23 lung = tested on: NCI-H23 lung
SF-539 CNS = tested on: SF-539 CNS

`Cc1ccc(C)n1-n1c(Cc2ccc(Cl)cc2)n[nH]c1=O` was tested, and the TGI (MDA-N) was greater than 100 µM, the TGI (HCT-15 colon) was greater than 100 µM and the TGI (RXF 393 renal) was greater than 100 µM. It also gave a TGI (OVCAR-4 ovarian) greater than 100 µM, a TGI (K-562 leukemia) greater than 100 µM and a TGI (NCI-H460 lung) greater than 100 µM. For the same compound, the TGI (SF-295 CNS) was greater than 100 µM, the TGI (OVCAR-5 ovarian) was greater than 100 µM and the TGI (A549 NSCLC) was greater than 100 µM. For the same compound, the TGI (LOX IMVI melanoma) was greater than 100 µM, the TGI (TK-10 renal) was greater than 100 µM and the TGI (DU-145 prostate) was greater than 100 µM. For the same compound, the TGI (HCT-116 colon) was greater than 100 µM, the TGI (MCF7 breast) was greater than 100 µM and the TGI (CCRF-CEM leukemia) was greater than 100 µM. It also gave a TGI (CAKI-1 renal) greater than 100 µM, a TGI (OVCAR-8 ovarian) greater than 100 µM and a TGI (PC-3 prostate) greater than 100 µM. The TGI (BT-549 breast) was greater than 100 µM, the TGI (MDA-MB-231 breast) was greater than 100 µM and the TGI (SK-MEL-28 melanoma) was greater than 100 µM. For the same compound, the TGI (U251 CNS) was greater than 100 µM, the TGI (MOLT-4 leukemia) was greater than 100 µM and the TGI (SNB-75 CNS) was greater than 100 µM. It also gave a TGI (NCI/ADR-RES ovarian) greater than 100 µM, a TGI (NCI-H226 lung) greater than 100 µM and a TGI (HS 578T breast) greater than 100 µM. For the same compound, the TGI (COLO 205 colon) was greater than 100 µM, the TGI (ACHN renal) was greater than 100 µM and the TGI (SN12C renal) was greater than 100 µM. It also gave a TGI (SK-MEL-2 melanoma) greater than 100 µM, a TGI (SK-OV-3 ovarian) greater than 100 µM and a TGI (KM12 colon) greater than 100 µM. For the same compound, the TGI (SR leukemia) was greater than 100 µM, the TGI (RPMI-8226 leukemia) was greater than 100 µM and the TGI (UO-31 renal) was greater than 100 µM. The TGI (IGROV1 ovarian) was greater than 100 µM, the TGI (HOP-62 NSCLC) was greater than 100 µM and the TGI (SW-620 colon) was greater than 100 µM. The TGI (MALME-3M melanoma) was greater than 100 µM, the TGI (SNB-19 CNS) was greater than 100 µM and the TGI (SF-268 CNS) was greater than 100 µM. It also gave a TGI (786-0 renal) greater than 100 µM, a TGI (UACC-62 melanoma) greater than 100 µM and a TGI (SK-MEL-5 melanoma) greater than 100 µM. The TGI (M14 melanoma) was greater than 100 µM, the TGI (A498 renal) was greater than 100 µM and the TGI (UACC-257 melanoma) was greater than 100 µM. For the same compound, the TGI (NCI-H522 lung) was greater than 100 µM, the TGI (OVCAR-3 ovarian) was greater than 100 µM and the TGI (HT29 colon) was greater than 100 µM. It also gave a TGI (MDA-MB-435) greater than 100 µM, a TGI (T-47D breast) greater than 100 µM and a TGI (EKVX NSCLC) greater than 100 µM.

For `Cc1cc(C)c2c(=O)cc(-c3ccccc3)[nH]c2c1`, the TGI (MDA-N) was 3.17 µM, the TGI (HCT-15 colon) was greater than 67.1 µM and the TGI (RXF 393 renal) was 5.11 µM. It also gave a TGI (OVCAR-4 ovarian) of 31 µM, a TGI (K-562 leukemia) greater than 100 µM and a TGI (HOP-92 NSCLC) of 59.5 µM. The TGI (NCI-H460 lung) was 31.2 µM, the TGI (SF-295 CNS) was 17.9 µM and the TGI (OVCAR-5 ovarian) was greater than 92.3 µM. The TGI (A549 NSCLC) was 29.1 µM, the TGI (LOX IMVI melanoma) was 41.2 µM and the TGI (TK-10 renal) was 22.8 µM. It also gave a TGI (DU-145 prostate) of 98.4 µM, a TGI (HCT-116 colon) of 15.8 µM and a TGI (MCF7 breast) of 22.2 µM. For the same compound, the TGI (CCRF-CEM leukemia) was greater than 100 µM, the TGI (CAKI-1 renal) was greater than 47.2 µM and the TGI (OVCAR-8 ovarian) was 46.9 µM. It also gave a TGI (HL-60(TB) leukemia) of 4.71 µM, a TGI (PC-3 prostate) greater than 93.2 µM and a TGI (BT-549 breast) of 54.2 µM. It also gave a TGI (MDA-MB-231 breast) of 39.7 µM, a TGI (SK-MEL-28 melanoma) of 35.3 µM and a TGI (U251 CNS) of 18 µM. The TGI (MOLT-4 leukemia) was greater than 100 µM, the TGI (SNB-75 CNS) was 19.3 µM and the TGI (NCI/ADR-RES ovarian) was 34.3 µM. For the same compound, the TGI (NCI-H226 lung) was 48.9 µM, the TGI (HS 578T breast) was 21.2 µM and the TGI (COLO 205 colon) was greater than 52 µM. The TGI (ACHN renal) was 23.5 µM, the TGI (NCI-H23 lung) was 16.5 µM and the TGI (SN12C renal) was greater than 65.3 µM. For the same compound, the TGI (SK-MEL-2 melanoma) was 55.9 µM, the TGI (SK-OV-3 ovarian) was 15.7 µM and the TGI (KM12 colon) was 22.1 µM. The TGI (SR leukemia) was greater than 100 µM, the TGI (RPMI-8226 leukemia) was 22.8 µM and the TGI (UO-31 renal) was 27.8 µM. The TGI (IGROV1 ovarian) was 35.4 µM, the TGI (HOP-62 NSCLC) was 23.7 µM and the TGI (SW-620 colon) was greater than 100 µM. For the same compound, the TGI (MALME-3M melanoma) was greater than 80.4 µM, the TGI (SF-539 CNS) was 8.11 µM and the TGI (SNB-19 CNS) was greater than 100 µM. The TGI (SF-268 CNS) was 46.7 µM, the TGI (786-0 renal) was 11.4 µM and the TGI (UACC-62 melanoma) was 28.7 µM. The TGI (SK-MEL-5 melanoma) was 30.6 µM, the TGI (M14 melanoma) was greater than 82.4 µM and the TGI (A498 renal) was 10.5 µM. The TGI (UACC-257 melanoma) was greater than 100 µM, the TGI (NCI-H522 lung) was 7.29 µM and the TGI (OVCAR-3 ovarian) was 25.6 µM. It also gave a TGI (HT29 colon) of 27.1 µM, a TGI (MDA-MB-435) of 41.6 µM and a TGI (T-47D breast) greater than 76.2 µM. For the same compound, the TGI (EKVX NSCLC) was 42.8 µM.
